Laboratory results as given in patent US20120208851A1, “FORMULATIONS” (NEUROSYSTEC CORPORATION, priority 2008, published 2012).

Legend:
[1] = Binding of gacyclidine by PLGA nanoparticles (gacyclidine in suspension by HPLC); type: physicochemical
Source text: Water (pH 7.2) was mixed with acetone solutions containing 2 grams/liter 5050 DLG 3E (PLGA, Lakeshore Biomaterials, solution A) or a solution of 2 grams/liter 5050 DLG 3E and 2 grams/liter gacyclidine base (solution B) or a solution of 2 grams/liter gacyclidine base (solution C). Rapid mixing was accomplished by pumping water into a T-mixer at 5 milliliters/minute and solution A, B, or C into the same T-mixer at 1 milliliter/minute.
Acetone was eliminated from the suspension of particles prepared by mixing water with solution B by stirring the suspension in an open beaker for three days. The particle suspension was then passed through a 0.2 micrometer polyethersulfone syringe filter (VWR International) to eliminate larger particles. […] These nanoparticles were then concentrated by pressure dialysis with a 10,000 MWCO cellulose membrane (Amicon) to a final volume of 17 milliliters. The average particle diameter in the concentrated suspension was determined to be 53 nanometers by dynamic light scattering.
To determine the gacyclidine concentration in the nanoparticle suspension, an aliquot (20 to 50 microliters) was diluted with 10 millimolar hydrochloric acid to a final volume of 1.8 milliliter and then analyzed by high-performance liquid chromatography. Gacyclidine in the concentrated suspension was determined to be 0.68 millimolar (0.18 grams/liter; 3.1 milligrams gacyclidine base; 8% of the initial gacyclidine). When this suspension was passed through a 0.2 micrometer polyethersulfone syringe filter (VWR International) it further reduced the concentration of gacyclidine to 0.23 millimolar (0.06 grams/liter; 1.0 milligrams gacyclidine base; 2.5% of the initial gacyclidine). […] After filtration of the pH 9.1 nanoparticle suspension through a 0.2 micrometer polyethersulfone syringe filter (VWR International) the concentration of particles was not reduced, based on light scattering intensity, nor was the average diameter of particles (58 nanometers, post-filtration) substantially altered. However, the concentration of gacyclidine present in the nanoparticle suspension, after adjusting the pH to 9.1 and passage through a 0.2 micrometer filter, was reduced to approximately 0.02 millimolar (0.005 grams/liter; 0.09 milligrams gacyclidine base; 0.2% of the initial gacyclidine). […] Very little of the gacyclidine in the initial nanoparticle preparation was bound to the PLGA nanoparticles, but was instead dissolved in the aqueous phase surrounding the particles.

[2] = Solubility of gacyclidine base in squalene; type: physicochemical
Experimental: Squalene was added to 1 gram of gacyclidine free base in 1 milliliter aliquots until the gacyclidine base went into solution. The minimum amount of squalene required to dissolve 1 gram of gacyclidine base was 9 milliliters. A suspension of gacyclidine-containing squalene was prepared by adding 4.3 milliliters of the gacyclidine solution in squalene (1 gram gacyclidine base dissolved in 9 milliliters squalene), 0.5 milliliters of polysorbate 80, 0.5 milliliters of sorbitan trioleate, 35 milligrams of dipotassium phosphate, 1 milligram of citric acid, and 877 milligrams of sodium chloride to a graduated cylinder and bringing the mixture to a final volume of 100 milliliters with water. The suspension of squalene-gacyclidine in phosphate buffered saline was passed through a Microfluidics M-110S high pressure homogenizer equipped with a G10Z 87 micrometer ceramic interaction chamber at 23,000 pounds per square inch. After 7 passes through the homogenizer with the interaction chamber maintained in an ice bath, the average particle diameter of the squalene-gacyclidine emulsion was determined to be 135 nanometers by use of a Horiba LB-550 dynamic light scattering particle size analyzer. After 7 additional passes of the emulsion through the homogenizer with the interaction chamber maintained in an ice bath, the average particle diameter was determined to be 122 nanometers. After 7 additional passes of the emulsion through the homogenizer with the interaction chamber maintained in an ice bath, the average particle diameter was determined to be 114 nanometers. After 7 additional passes of the emulsion through the homogenizer with the interaction chamber maintained in an ice bath, the average particle diameter was determined to be 112 nanometers. Extensive analysis of the squalene-gacyclidine emulsion determined that the average particle diameter was between 107 to 123 nanometers. The pH and osmolality of the squalene-gacyclidine emulsion were determined to be 7.6 and 279 milliosmolal, respectively.

[3] = concentrated PLGA suspension passed through 0.2 micrometer polyethersulfone syringe filter
[4] = pH 9.1, passage through 0.2 micrometer filter

## CC1CCCCC1(c1cccs1)N1CCCCC1 (stereo not shown) [gacyclidine]
[1]; PLGA+gacyclidine nanoparticles after 0.2 micrometer filtration and pressure dialysis concentration
  % of the initial gacyclidine in the concentrated suspension: 8%
[1]; PLGA+gacyclidine nanoparticles after 0.2 micrometer filtration and pressure dialysis concentration, HPLC
  Gacyclidine in the concentrated suspension: 0.68 millimolar
[1]; based on final amount of gacyclidine remaining associated with PLGA nanoparticles
  affinity for PLGA: does not have a high affinity for PLGA
[1]; [3]
  % of the initial gacyclidine after passing concentrated suspension through 0.2 micrometer filter: 2.5%
  concentration of gacyclidine after passing concentrated suspension through 0.2 micrometer filter: 0.23 millimolar
[1]; [4]
  % of the initial gacyclidine after adjusting pH to 9.1 and filtration: 0.2%
  concentration of gacyclidine in the nanoparticle suspension after adjusting pH to 9.1 and filtration: approximately 0.02 millimolar
[2]
  limit of solubility in the squalene phase: 1 gram of gacyclidine for every 9 milliliters of squalene
[2]; squalene added in 1 milliliter aliquots
  minimum amount of squalene required to dissolve 1 gram of gacyclidine base: 9 milliliters

## CNC1(c2ccccc2Cl)CCCCC1=O (stereo not shown) [ketamine]
[2]
  limit of solubility in the squalene phase: similar
